Results as given in patent US10835533B2, “1 -((3S,4R)-4-(3-fluorophenyl)-1-(2-methoxyethyl)pyrrolidin-3-yl)-3-(4-methyl-3-(2-methylpyrimidin-5-yl)-1-phenyl-1H-pyrazol-5-yl)urea as a TrkA kinase inhibitor” (Array BioPharma Inc., priority 2014, dated 2020).
Marks after values point to notes of the source that are not given here.

Legend:
[1] = Predicted human IV clearance (microsomal CLh/correction factor); settings: for in vivo/in vitro correction factor: pre-clinical mean correction factor for all species tested; for IV clearance (predicted): predicted from human microsomal CLh and mean pre-clinical correction factor
Experimental: In Table 1, the predicted human IV clearance values were calculated from compound concentration-versus-time data in plasma collected from pre-clinical species (mouse, rat, dog and monkey) following 1 mg/kg intravenous (IV) doses. Concentrations of compound in plasma were measured by LC-MS (liquid chromatography-mass spectrometry). AUCinf values (Area under the plasma concentration-time curve for a dosing interval from time 0 extrapolated to infinity) for individual Cp/t curves (concentration of the drug in plasma at any time t) were determined using linear-trapezoidal integration and first order extrapolation from terminal points of the Cp/t curves, and clearance (CL) was calculated using Dose/AUCinf.
The in vivo/in vitro correction factor was then determined by dividing the […]. The arithmetic mean of the pre-clinical correction factors for each compound was used to predict the human IV clearance from the measured human microsomal CLh (CLh/correction factor).

[2] = Liver microsomal clearance, rat; type: in vitro ADME; settings: pH 7.4; Rat liver microsomes; 1 mg/mL; 20 minutes
Experimental: The predicted hepatic clearance (CLh) value was calculated by scaling the in vitro half-life (t1/2) for stability of the compound in liver microsomes (1 mg/mL; 20 minutes) using the physical and physiological scaling factors used to predict intrinsic clearance (CLint) and hepatic clearance (CLhep) listed in Table 2 and employed in the following equations: […]
where D is the amount of cytochrome P450-related protein per mass of liver, W is the average mass of liver present per weight of animal, C is the liver microsomal concentration, and Q is the species-dependent hepatic blood flow.
A 100 mM potassium phosphate assay buffer solution (KPB) was prepared as follows. Both KH2PO4 and K2HPO4 were dissolved separately in reagent grade water resulting in final concentrations 100 mM. A 75:25 mixture v/v of K2HPO4:KH2PO4 was prepared and the pH of the solution was adjusted to 7.4 using diluted HCl or diluted NaOH solutions. Stock solutions of Compound 1, Compound 2 and Compound 3 were prepared at 10 mM (active compound) in DMSO. The stock solution was diluted immediately before use to 2.5 μM using the KPB solution to create the working standard. All test compounds were completely soluble in DMSO by visual inspection at room temperature. The NADPH-regenerating solution (NRS) was prepared on the day of analysis by diluting one volume of 17 mg/mL NADP^+ with one volume of 78 mg/mL glucose-6-phosphate (both prepared in KPB, pH 7.4) and 7.9 volumes of 20 mM MgCl2. The final concentrations of NADP^+ and glucose-6-phosphate were 1.7 mg/mL and 7.8 mg/mL, respectively. […]
All calculations were performed using BioAssay Enterprise. The mean peak area ratios were calculated by averaging the peak area ratios (n=2) of Compound 1, Compound 2, Compound 3, and the internal standard for each sample. Percent remaining was calculated by determining the ratio of the peak area ratio at each time point to the peak area ratio of the time-zero samples. The rate of loss of test compound (km) was determined by linear regression of −ln(f(t)) versus time. […] The t1/2 was determined dividing ln(2) by km. […]

| in vivo/in vitro correction factor [1] | IV clearance (predicted) [1] | CLhep predicted at 1 μM [2] [mL/min/kg] | SMILES |
| --- | --- | --- | --- |
| 2.09 *** | 5 (predicted)** mL/min/kg | 22 | COCCN1C[C@@H](NC(=O)Nc2c(C)c(-c3cnc(C)nc3)nn2-c2ccccc2)[C@H](c2cccc(F)c2)C1 [Compound 1, 1-((3S,4R)-4-(3-fluorophenyl)-1-(2-methoxyethyl)pyrrolidin-3-yl)-3-(4-methyl-3-(2-methylpyrimidin-5-yl)-1-phenyl-1H-pyrazol-5-yl)urea] |
| 1.32 *** | 12 (predicted)** mL/min/kg | 22 | COCCN1C[C@@H](NC(=O)Nc2c(C)c(-c3cnc(C)nc3)nn2-c2ccccc2)[C@H](c2ccc(F)c(F)c2)C1 [Compound 2, 1-((3S,4R)-4-(3,4-difluorophenyl)-1-(2-methoxyethyl)pyrrolidin-3-yl)-3-(4-methyl-3-(2-methylpyrimidin-5-yl)-1-phenyl-1H-pyrazol-5-yl)urea] |
| 0.96 *** | 10 (predicted)** mL/min/kg | 23 | COCCN1C[C@@H](NC(=O)Nc2c(C)c(-c3cnn(C)c3)nn2-c2ccccc2)[C@H](c2ccc(F)cc2)C1 [Compound 3, 1-(1′,4-dimethyl-1-phenyl-1H,1′H-[3,4′-bipyrazol]-5-yl)-3-((3S,4R)-4-(4-fluorophenyl)-1-(2-methoxyethyl)pyrrolidin-3-yl)urea] |
